Test results published in ChEMBL document CHEMBL1140559, “Synthesis and cytotoxic activity of various 5-[alkoxy-(4-nitro-phenyl)-methyl]-uracils in their racemic form” (Bioorg Med Chem Lett, 2007).
The source made the active and inactive calls. No cut-off for these calls is given here.

Tests used:
Format in all cases: functional, cell-based
Settings in all cases: Homo sapiens
CCRF-CEM [1] = experiment: Inhibition of DNA synthesis in CEM cells at 5 times IC50
CCRF-CEM [2] = experiment: Increase in RNA synthesis in CEM cells at IC50
CCRF-CEM [3] = experiment: Cytotoxicity against lung resistance protein positive CEM cells
K562-Tax = experiment: Cytotoxicity against p-glycoprotein positive K562-Tax cells
CCRF-CEM [4] = experiment: Induction of apoptosis in CEM cells at IC50 after 24 hrs […]
CCRF-CEM [5] = experiment: Inhibition of DNA synthesis in CEM cells at IC50
CCRF-CEM [6] = experiment: Inhibition of RNA synthesis in CEM cells at IC50

Structure (SMILES) | Activity (CCRF-CEM [1]) | Activity (CCRF-CEM [2]) | Activity (CCRF-CEM [3]) | Activity (K562-Tax) | Activity (CCRF-CEM [4]) | Activity (CCRF-CEM [5]) | Activity (CCRF-CEM [6])
CCCCCCCCOC(c1ccc([N+](=O)[O-])cc1)c1c[nH]c(=O)[nH]c1=O (stereo not given) | Active | Active | Active | Active |  |  | 
CCCCCCCCCOC(c1ccc([N+](=O)[O-])cc1)c1c[nH]c(=O)[nH]c1=O (stereo not given) |  |  | Active | Active |  |  | 
CCCCCCCCCCCOC(c1ccc([N+](=O)[O-])cc1)c1c[nH]c(=O)[nH]c1=O (stereo not given) |  |  | Active | Active |  |  | 
CCCCCCCCCCOC(c1ccc([N+](=O)[O-])cc1)c1c[nH]c(=O)[nH]c1=O (stereo not given) |  |  | Active | Active |  |  | 
CCCCCCCCCCCCOC(c1ccc([N+](=O)[O-])cc1)c1c[nH]c(=O)[nH]c1=O (stereo not given) |  |  | Active | Active |  |  | 
CCCCCCOC(c1ccc([N+](=O)[O-])cc1)c1c[nH]c(=O)[nH]c1=O (stereo not given) | Active |  |  |  | Active | Active | Active
CCCCCCCOC(c1ccc([N+](=O)[O-])cc1)c1c[nH]c(=O)[nH]c1=O (stereo not given) | Active | Active | Active | Active |  |  | 
